Measured values: patent publication EP4786487A1, “PEPTIDE” (Peptidream Inc, priority 2023, dated 2025)
Where two headings read alike, the source gives them in different places. Starred links: 1 amine or outer side, 2 acyl side, 3 side chain; linkers in the order of their positions; H or OH if unused. Positions of bridges follow the written chain, without caps; N, C: chain ends. Non-standard residues stand in square brackets, D forms with d. Residues, ends and D or L forms follow the SMILES beside them. Groups on a side chain read outwards from the residue. *: point of attachment. Phe(3-OCH2COOH) = N[C@@H](Cc1cccc(OCC(=O)O)c1)C(=O)O; Trp(1-Ph) = N[C@@H](Cc1cn(-c2ccccc2)c2ccccc12)C(=O)O; NMePhe(3-Ph) = CN[C@@H](Cc1cccc(-c2ccccc2)c1)C(=O)O; Phe(4-COOH) = N[C@@H](Cc1ccc(C(=O)O)cc1)C(=O)O; Trp(7-aza) = N[C@@H](Cc1c[nH]c2ncccc12)C(=O)O; Piperazinyl(4-CH2COOH) = O=C(O)CN1CCN(*)CC1; Gly(decyl) = CCCCCCCCCC[C@H](N)C(=O)O; Gly(N(CH2)3COOH) = O=C(O)CCCNCC(=O)O; X1 = CCCCCCC[C@H](N[*:1])C(=O)[*:2]; X5 = CC(=O)NCCCN(CC(=O)[*:2])[*:1]; NMeF = CN[C@@H](Cc1ccccc1)C(=O)O; 4Pal = N[C@@H](Cc1ccncc1)C(=O)O; NMeE = CN[C@@H](CCC(=O)O)C(=O)O; Cha = N[C@@H](CC1CCCCC1)C(=O)O; NMeA = CN[C@@H](C)C(=O)O; CO = O=C([*:1])[*:2]; Sar = CNCC(=O)O

What was measured:
Myostatin = biological target: T1, Myostatin (Homo sapiens, UniProt O14793); assay: HepG2 reporter gene assay, Evaluation Procedure (2): 2-concentrations assay, myostatin inhibition; assay type: cell-based; details: HepG2
T1 construct: active myostatin (also called mature myostatin) is a homodimer consisting of two C-terminal growth factor domains; purchased R&D systems 788-G8/CF
T1 sequence (O14793 267-375): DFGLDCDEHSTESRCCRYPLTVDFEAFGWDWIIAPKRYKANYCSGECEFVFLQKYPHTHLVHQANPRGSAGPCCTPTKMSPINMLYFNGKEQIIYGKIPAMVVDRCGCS
How it was run: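 HepG2 cells (HB-8065, ATCC) carrying the transfected pGL3(CAGA)12-luc reporter plasmid were treated with myostatin (788-G8/CF, R&D systems) at a final concentration of 10 ng/mL plus peptide and incubated at 37°C, 5% CO2 for 20 to 24 hours. Luminescence was read after adding PBS mixed 1:1 with One-Glo substrate, and inhibition rate was calculated.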

GDF-11 = biological target: T2, GDF-11 (Homo sapiens, UniProt O95390); assay: HepG2 reporter gene assay, Evaluation Procedure (2): 2-concentrations assay, GDF-11 inhibition; assay type: cell-based; details: for inhibition at 0.03 µM: HepG2, peptide 30nM, read-out: GDF11 Inhibition 30nM; for inhibition at 0.03 µM / inhibition at 0.1 µM: GDF-11 10 ng/mL; for inhibition at 0.1 µM: HepG2, peptide 100nM, read-out: GDF11 Inhibition 100nM; for inhibition: read-out: inhibition rate (GDF-11 inhibition assay)
T2 construct: purchased R&D systems 1958-GD-G8/CF
T2 sequence (O95390 299-407): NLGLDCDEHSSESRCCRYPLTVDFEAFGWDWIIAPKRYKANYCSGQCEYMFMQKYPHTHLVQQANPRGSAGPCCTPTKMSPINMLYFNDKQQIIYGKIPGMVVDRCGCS
How it was run: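 HepG2 cells carrying the transfected pGL3(CAGA)12-luc reporter, a pGL3 vector with luciferase placed downstream of 12 CAGA repeats, were stimulated with GDF-11 at a final 10 ng/mL together with test peptide. Blank wells received no GDF-11 and no peptide. Plates were incubated 20 to 24 hours at 37°C with 5% CO2. Luminescence from One-Glo substrate was read to calculate percent inhibition.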

[1] = peptide 30nM, Myostatin 10 ng/mL, read-out: Myostatin Inhibition 30nM
[2] = peptide 100nM, Myostatin 10 ng/mL, read-out: Myostatin Inhibition 100nM
[3] = Table 7-3/7-4, myostatin 10 ng/mL, peptide at the higher of the 2 concentrations, read-out: inhibition rate (myostatin inhibition assay)
[4] = Table 7-3/7-4, myostatin 10 ng/mL, peptide at the lower of the 2 concentrations, read-out: inhibition rate (myostatin inhibition assay)
[5] = HepG2, first GDF-11 column of Table 7-3/7-4, GDF-11 10 ng/mL, peptide at the lower of the 2 concentrations
[6] = HepG2, second GDF-11 column of Table 7-3/7-4, GDF-11 10 ng/mL, peptide at the higher of the 2 concentrations

SMILES: CC[C@H](C)[C@@H]1NC(=O)[C@H](Cc2ccccc2)N(C)C(=O)[C@H](Cc2ccc(O)cc2)NC(=O)[C@H](Cc2c[nH]c3ncccc23)NC(=O)[C@H](C)NC(=O)CN(CCCC(=O)O)C(=O)CSC[C@H](C(=O)N[C@H](CO)C(=O)N[C@H](CO)C(=O)N[C@H](CO)C(=O)N[C@H](CCCCN)C(=O)O)NC(=O)[C@H](Cc2ccccc2)N(C)C(=O)[C@H](C)N(C)C(=O)[C@H](CC(C)C)NC(=O)[C@H](Cc2ccccc2)N(C)C(=O)[C@H](CCCNC(=N)N)NC(=O)[C@H](Cc2ccc(C(=O)O)cc2)NC(=O)[C@H](Cc2ccncc2)NC(=O)CN(C)C1=O [Myostatin_99_v38] ({CH2CO}-[Gly(N(CH2)3COOH)]A[Trp(7-aza)]Y[NMeF]I[Sar][4Pal][Phe(4-COOH)]R[NMeF]L[NMeA][NMeF][dC][dS][dS][dS][dK]-OH; thioether N-15)
- inhibition at 0.03 µM (Myostatin; [1]): 40%
- inhibition at 0.1 µM (Myostatin; [2]): 80%
- inhibition at 0.03 µM (GDF-11): 0%
- inhibition at 0.1 µM (GDF-11): 11%

SMILES: CCCCCCC[C@@H]1NC(=O)[C@H](Cc2ccccc2)N(C)C(=O)[C@H](CCCNC(=N)N)NC(=O)[C@H](Cc2ccc(C(=O)O)cc2)NC(=O)[C@H](Cc2cccc(OCC(=O)O)c2)NC(=O)CN(C)C(=O)[C@H]([C@@H](C)CC)NC(=O)[C@H](Cc2ccccc2)N(C)C(=O)[C@H](Cc2ccc(O)cc2)NC(=O)[C@H](Cc2c[nH]c3ccccc23)NC(=O)[C@H](C)NC(=O)[C@H](C)NC(=O)CSC[C@H](C(=O)N[C@@H](CCCCNC(=O)N2CCN(CC(=O)O)CC2)C(=O)O)NC(=O)[C@H](Cc2ccccc2)N(C)C(=O)[C@H](C)N(C)C1=O [Myostatin_99_v427] ({CH2CO}-AAWY[NMeF]I[Sar][Phe(3-OCH2COOH)][Phe(4-COOH)]R[NMeF][X1][NMeA][NMeF][dC]K([CO-Piperazinyl(4-CH2COOH)])-OH; thioether N-15)
- inhibition at 0.1 µM (Myostatin; [3]): 100%
- inhibition at 0.03 µM (Myostatin; [4]): 98%
- inhibition (GDF-11; [5]): 0%
- inhibition (GDF-11; [6]): 0%

SMILES: CC[C@H](C)[C@@H]1NC(=O)[C@H](Cc2ccccc2)N(C)C(=O)[C@H](Cc2ccc(O)cc2)NC(=O)[C@H](Cc2c[nH]c3ccccc23)NC(=O)[C@H](C)NC(=O)CN(CCCC(=O)O)C(=O)CSC[C@H](C(N)=O)NC(=O)[C@H](Cc2ccccc2)N(C)C(=O)[C@H](C)N(C)C(=O)[C@H](CC(C)C)NC(=O)[C@H](Cc2ccccc2)N(C)C(=O)[C@H](CCCNC(=N)N)NC(=O)[C@H](Cc2ccncc2)NC(=O)[C@H](Cc2ccc(O)cc2)NC(=O)CN(C)C1=O [Myostatin_99_Variant_17] ({CH2CO}-[Gly(N(CH2)3COOH)]AWY[NMeF]I[Sar]Y[4Pal]R[NMeF]L[NMeA][NMeF][dC]-NH2; thioether N-15)
- inhibition at 0.03 µM (Myostatin; [1]): 37%
- inhibition at 0.1 µM (Myostatin; [2]): 72%
- inhibition at 0.03 µM (GDF-11): 0%
- inhibition at 0.1 µM (GDF-11): 14%

SMILES: CC[C@H](C)[C@@H]1NC(=O)[C@H](Cc2ccccc2)N(C)C(=O)[C@H](Cc2ccc(O)cc2)NC(=O)[C@H](Cc2c[nH]c3ccccc23)NC(=O)[C@H](CCC(=O)O)NC(=O)[C@H](C)NC(=O)CSC[C@@H](C(N)=O)NC(=O)[C@H](Cc2ccccc2)N(C)C(=O)[C@H](C)N(C)C(=O)[C@H](CC(C)C)NC(=O)[C@H](Cc2ccccc2)N(C)C(=O)[C@H](CCCNC(=N)N)NC(=O)[C@H](Cc2ccc(O)cc2)NC(=O)[C@H](Cc2ccc(O)cc2)NC(=O)CN(C)C1=O [Myostatin_000099_02E] ({CH2CO}-AEWY[NMeF]I[Sar]YYR[NMeF]L[NMeA][NMeF]C-NH2; thioether N-15)
- inhibition at 0.03 µM (Myostatin; [1]): 58%
- inhibition at 0.1 µM (Myostatin; [2]): 83%
- inhibition at 0.03 µM (GDF-11): 0%
- inhibition at 0.1 µM (GDF-11): 9%

SMILES: CC[C@H](C)[C@@H]1NC(=O)[C@H](Cc2ccccc2)N(C)C(=O)[C@H](Cc2ccc(O)cc2)NC(=O)[C@H](Cc2c[nH]c3ccccc23)NC(=O)[C@H](C)NC(=O)CN(CCCC(=O)O)C(=O)CSC[C@H](C(=O)N[C@H](CO)C(=O)N[C@H](CO)C(=O)N[C@H](CO)C(=O)N[C@H](CCCCN)C(=O)O)NC(=O)[C@H](Cc2ccccc2)N(C)C(=O)[C@H](C)N(C)C(=O)[C@H](CC(C)C)NC(=O)[C@H](Cc2ccccc2)N(C)C(=O)[C@H](CCCNC(=N)N)NC(=O)[C@H](Cc2ccc(C(=O)O)cc2)NC(=O)[C@H](Cc2ccc(O)cc2)NC(=O)CN(C)C1=O [Myostatin_99_v34] ({CH2CO}-[Gly(N(CH2)3COOH)]AWY[NMeF]I[Sar]Y[Phe(4-COOH)]R[NMeF]L[NMeA][NMeF][dC][dS][dS][dS][dK]-OH; thioether N-15)
- inhibition at 0.03 µM (Myostatin; [1]): 65%
- inhibition at 0.1 µM (Myostatin; [2]): 89%
- inhibition at 0.03 µM (GDF-11): 0%
- inhibition at 0.1 µM (GDF-11): 32%

SMILES: CCCCCCC[C@@H]1NC(=O)[C@H](Cc2ccccc2)N(C)C(=O)[C@H](CCCNC(=N)N)NC(=O)[C@H](Cc2ccc(C(=O)O)cc2)NC(=O)[C@H](Cc2ccncc2)NC(=O)CN(C)C(=O)[C@H]([C@@H](C)CC)NC(=O)[C@H](Cc2ccccc2)N(C)C(=O)[C@H](Cc2ccc(O)cc2)NC(=O)[C@H](Cc2c[nH]c3ccccc23)NC(=O)[C@H](C)NC(=O)CN(CCCNC(C)=O)C(=O)CSC[C@H](C(=O)O)NC(=O)[C@H](Cc2ccccc2)N(C)C(=O)[C@H](C)N(C)C1=O [Myostatin_99_v225] ({CH2CO}-[X5]AWY[NMeF]I[Sar][4Pal][Phe(4-COOH)]R[NMeF][X1][NMeA][NMeF][dC]-OH; thioether N-15)
- inhibition at 0.03 µM (Myostatin; [1]): 94%
- inhibition at 0.1 µM (Myostatin; [2]): 99%
- inhibition at 0.03 µM (GDF-11): 0%
- inhibition at 0.1 µM (GDF-11): 3%

SMILES: CCCCCCCCCC[C@@H]1NC(=O)[C@H](CC2CCCCC2)NC(=O)[C@H](CCCNC(=N)N)NC(=O)[C@H](Cc2ccc(C(=O)O)cc2)NC(=O)[C@H](Cc2cccc(OCC(=O)O)c2)NC(=O)[C@H](C)N(C)C(=O)[C@H]([C@@H](C)CC)NC(=O)[C@H](Cc2ccccc2)N(C)C(=O)[C@H](Cc2ccc(O)cc2)NC(=O)[C@H](Cc2cn(-c3ccccc3)c3ccccc23)NC(=O)[C@H](C)NC(=O)[C@H](C)NC(=O)CSC[C@H](C(=O)N2CCN(CC(=O)O)CC2)NC(=O)[C@H](Cc2cccc(-c3ccccc3)c2)N(C)C(=O)[C@H](CCC(=O)O)N(C)C1=O [Myostatin_99_v332] ({CH2CO}-AA[Trp(1-Ph)]Y[NMeF]I[NMeA][Phe(3-OCH2COOH)][Phe(4-COOH)]R[Cha][Gly(decyl)][NMeE][NMePhe(3-Ph)][dC]-{Piperazinyl(4-CH2COOH)}; thioether N-15)
- inhibition at 0.1 µM (Myostatin; [3]): 100%
- inhibition at 0.03 µM (Myostatin; [4]): 100%
- inhibition (GDF-11; [5]): 0%
- inhibition (GDF-11; [6]): 0%
